In US20240425490A1, “SULFAMIDE RIBONUCLEOTIDE REDUCTASE (RNR) INHIBITORS AND USES THEREOF” (Boundless Bio, Inc., priority 2021, published 2024):

Target: T1, RNR (RNR1:RNR2 1:1) (Homo sapiens, UniProt P23921)
T1 sequence (P23921 1-792): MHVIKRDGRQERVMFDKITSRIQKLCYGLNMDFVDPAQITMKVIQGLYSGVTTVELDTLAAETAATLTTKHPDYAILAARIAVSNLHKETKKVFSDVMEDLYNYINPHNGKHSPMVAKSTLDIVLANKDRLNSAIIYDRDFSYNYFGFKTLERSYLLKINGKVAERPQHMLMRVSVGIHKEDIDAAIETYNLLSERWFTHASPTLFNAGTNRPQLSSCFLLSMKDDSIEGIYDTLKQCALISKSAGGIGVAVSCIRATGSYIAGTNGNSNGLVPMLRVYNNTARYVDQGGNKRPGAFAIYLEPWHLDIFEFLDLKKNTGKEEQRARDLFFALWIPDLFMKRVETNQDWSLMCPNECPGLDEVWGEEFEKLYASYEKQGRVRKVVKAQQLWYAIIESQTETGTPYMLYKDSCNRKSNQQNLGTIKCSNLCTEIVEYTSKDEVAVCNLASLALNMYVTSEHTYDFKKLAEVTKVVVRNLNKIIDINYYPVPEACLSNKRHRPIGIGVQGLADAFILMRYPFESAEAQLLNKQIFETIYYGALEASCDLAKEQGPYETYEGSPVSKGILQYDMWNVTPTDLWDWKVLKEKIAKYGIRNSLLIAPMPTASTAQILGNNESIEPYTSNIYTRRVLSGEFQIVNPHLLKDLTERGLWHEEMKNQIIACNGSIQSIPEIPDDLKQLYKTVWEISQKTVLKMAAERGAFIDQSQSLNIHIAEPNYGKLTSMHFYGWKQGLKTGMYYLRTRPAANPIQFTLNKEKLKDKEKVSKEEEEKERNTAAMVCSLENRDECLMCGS
Experiment: RNR enzyme activity, rapid-fire mass spectrometry (RFMS) assay
Assay type: biochemical
Details: RNR 50 nM, CDP 5 μM, ATP 1 mM, 37° C., 45 min, compounds screened up to 50 μM, read-out: RF/MS IC50
Method in brief: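 Human RNR1:RNR2 (1:1, 50 nM) pre-incubated 15 min at room temperature with compound, then reacted with 5 μM CDP and 1 mM ATP, no NADPH, for 45 min at 37 °C. Stopped with 6% HCOOH; turnover read by rapid-fire mass spectrometry; Triapine and hydroxyurea as reference compounds.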

Compound	IC50 [nM]
COC1CCN(S(=O)(=O)N[C@H](c2n[nH]c(=O)o2)[C@H](C)c2c(F)ccc(C)c2C)CC1 [Example 125, N-((1S,2R)-2-(6-fluoro-2,3-dimethylphenyl)-1-(5-oxo-4,5-dihydro-1,3,4-oxadiazol-2-yl)propyl)-4-methoxypiperidine-1-sulfonamide]	100 to 1000
Cc1ccc(F)c([C@H](C)[C@H](NS(=O)(=O)N2CCC3(CC2)OCCO3)c2n[nH]c(=O)o2)c1C [Example 134, N-((1S,2S)-2-(6-fluoro-2,3-dimethylphenyl)-1-(5-oxo-4,5-dihydro-1,3,4-oxadiazol-2-yl)propyl)-1,4-dioxa-8-azaspiro[4.5]decane-8-sulfonamide]	100 to 1000
Cc1ccc(F)c([C@H](C)[C@H](NS(=O)(=O)N2CCC[C@](C)(O)C2)c2n[nH]c(=O)o2)c1C [Example 21, (S)-N-((1S,2S)-2-(6-fluoro-2,3-dimethylphenyl)-1-(5-oxo-4,5-dihydro-1,3,4-oxadiazol-2-yl)propyl)-3-hydroxy-3-methylpiperidine-1-sulfonamide]	1000 to 10000
Cc1ccc(F)c([C@@H](C)[C@H](NS(=O)(=O)N2CCC3(CC2)CC(F)(F)C3)c2n[nH]c(=O)o2)c1C [Example 94, 2,2-difluoro-N-((1S,2R)-2-(6-fluoro-2,3-dimethylphenyl)-1-(5-oxo-4,5-dihydro-1,3,4-oxadiazol-2-yl)propyl)-7-azaspiro[3.5]nonane-7-sulfonamide]	100 to 1000
Cc1ccc(F)c([C@H](C)[C@H](NS(=O)(=O)N2CCC(C(C)(C)C)CC2)c2n[nH]c(=O)o2)c1C [Example 132, 4-(tert-butyl)-N-((1S,2S)-2-(6-fluoro-2,3-dimethylphenyl)-1-(5-oxo-4,5-dihydro-1,3,4-oxadiazol-2-yl)propyl)piperidine-1-sulfonamide]	1000 to 10000
Cc1ccc(F)c(C(C)[C@H](NS(=O)(=O)N2CCC(F)(F)C2)c2n[nH]c(=O)o2)c1C (stereo partly drawn) [Example 137, 3,3-difluoro-N-((1S)-2-(6-fluoro-2,3-dimethylphenyl)-1-(5-oxo-4,5-dihydro-1,3,4-oxadiazol-2-yl)propyl)pyrrolidine-1-sulfonamide]	10000 to 100000
Cc1ccc(F)c(C(C)[C@H](NS(=O)(=O)N2CC3C(C2)C3(F)F)c2n[nH]c(=O)o2)c1C (stereo partly drawn) [Example 106, 6,6-difluoro-N-((1S)-2-(6-fluoro-2,3-dimethylphenyl)-1-(5-oxo-4,5-dihydro-1,3,4-oxadiazol-2-yl)propyl)-3-azabicyclo[3.1.0]hexane-3-sulfonamide]	100 to 1000
Cc1ccc(F)c([C@@H](C)[C@H](NS(=O)(=O)N2CCc3ccccc3C2)c2n[nH]c(=O)o2)c1C [Example 135, N-((1S,2R)-2-(6-fluoro-2,3-dimethylphenyl)-1-(5-oxo-4,5-dihydro-1,3,4-oxadiazol-2-yl)propyl)-3,4-dihydroisoquinoline-2(1H)-sulfonamide]	100 to 1000
Cc1ccc(F)c([C@@H](C)[C@H](NS(=O)(=O)N2CC(C)CC(C)C2)c2n[nH]c(=O)o2)c1C (stereo partly drawn) [Example 121, N-((1S,2R)-2-(6-fluoro-2,3-dimethylphenyl)-1-(5-oxo-4,5-dihydro-1,3,4-oxadiazol-2-yl)propyl)-3,5-dimethylpiperidine-1-sulfonamide]	1000 to 10000
CC(=O)NC1CCN(S(=O)(=O)N[C@H](c2n[nH]c(=O)o2)[C@@H](C)c2c(F)ccc(C)c2C)CC1 [Example 30, N-(1-(N-((1S,2S)-2-(6-fluoro-2,3-dimethylphenyl)-1-(5-oxo-4,5-dihydro-1,3,4-oxadiazol-2-yl)propyl)sulfamoyl)piperidin-4-yl)acetamide]	1000 to 10000
Cc1ccc(F)c([C@@H](C)[C@H](NS(=O)(=O)N2CCC(C)(C#N)CC2)c2n[nH]c(=O)o2)c1C [Example 81, 4-cyano-N-((1S,2R)-2-(6-fluoro-2,3-dimethylphenyl)-1-(5-oxo-4,5-dihydro-1,3,4-oxadiazol-2-yl)propyl)-4-methylpiperidine-1-sulfonamide]	100 to 1000
Cc1ccc(F)c([C@H](C)[C@H](NS(=O)(=O)N2CCCCC2c2ccccc2)c2n[nH]c(=O)o2)c1C (stereo partly drawn) [Example 36, N-((1S,2S)-2-(6-fluoro-2,3-dimethylphenyl)-1-(5-oxo-4,5-dihydro-1,3,4-oxadiazol-2-yl)propyl)-2-phenylpiperidine-1-sulfonamide]	10000 to 100000
CC(=O)[C@@H]1CCCCN1S(=O)(=O)N[C@H](c1n[nH]c(=O)o1)[C@@H](C)c1c(F)ccc(C)c1C [Example 18, (S)-2-acetyl-N-((1S,2S)-2-(6-fluoro-2,3-dimethylphenyl)-1-(5-oxo-4,5-dihydro-1,3,4-oxadiazol-2-yl)propyl)piperidine-1-sulfonamide]	1000 to 10000
Cc1ccc(F)c([C@@H](C)[C@H](NS(=O)(=O)N2CCC(c3nncn3C)CC2)c2n[nH]c(=O)o2)c1C [Example 52, N-((1S,2R)-2-(6-fluoro-2,3-dimethylphenyl)-1-(5-oxo-4,5-dihydro-1,3,4-oxadiazol-2-yl)propyl)-4-(4-methyl-4H-1,2,4-triazol-3-yl)piperidine-1-sulfonamide]	10000 to 100000
Cc1ccc(F)c(C(C)[C@H](NS(=O)(=O)N2CCC3(CCC(=O)N3C)CC2)c2n[nH]c(=O)o2)c1C (stereo partly drawn) [Example 93, N-((1S)-2-(6-fluoro-2,3-dimethylphenyl)-1-(5-oxo-4,5-dihydro-1,3,4-oxadiazol-2-yl)propyl)-1-methyl-2-oxo-1,8-diazaspiro[4.5]decane-8-sulfonamide]	1000 to 10000
Cc1ccc(F)c([C@@H](C)[C@H](NS(=O)(=O)N2CCC3(CCCN(C)C3)CC2)c2n[nH]c(=O)o2)c1C [Example 83, N-((1S,2R)-2-(6-fluoro-2,3-dimethylphenyl)-1-(5-oxo-4,5-dihydro-1,3,4-oxadiazol-2-yl)propyl)-2-methyl-2,9-diazaspiro[5.5]undecane-9-sulfonamide]	1000 to 10000
Cc1ccc(F)c([C@@H](C)[C@H](NS(=O)(=O)N2CCC(C(C)C)CC2)c2n[nH]c(=O)o2)c1C [Example 38, N-((1S,2R)-2-(6-fluoro-2,3-dimethylphenyl)-1-(5-oxo-4,5-dihydro-1,3,4-oxadiazol-2-yl)propyl)-4-isopropylpiperidine-1-sulfonamide]	10000 to 100000
Cc1ccc(F)c([C@H](C)[C@H](NS(=O)(=O)N2CCC(C(C)C)CC2)c2n[nH]c(=O)o2)c1C [Example 39, N-((1S,2S)-2-(6-fluoro-2,3-dimethylphenyl)-1-(5-oxo-4,5-dihydro-1,3,4-oxadiazol-2-yl)propyl)-4-isopropylpiperidine-1-sulfonamide]	1000 to 10000
Cc1ccc(F)c([C@@H](C)[C@H](NS(=O)(=O)N2CCCC[C@@H]2C(N)=O)c2n[nH]c(=O)o2)c1C [Example 12, (R)-1-(N-((1S,2R)-2-(6-fluoro-2,3-dimethylphenyl)-1-(5-oxo-4,5-dihydro-1,3,4-oxadiazol-2-yl)propyl)sulfamoyl)piperidine-2-carboxamide]	1000 to 10000
Cc1ccc(F)c([C@@H](C)[C@H](NS(=O)(=O)N2CCCCC2c2ccccc2)c2n[nH]c(=O)o2)c1C (stereo partly drawn) [Example 35, N-((1S,2R)-2-(6-fluoro-2,3-dimethylphenyl)-1-(5-oxo-4,5-dihydro-1,3,4-oxadiazol-2-yl)propyl)-2-phenylpiperidine-1-sulfonamide]	1000 to 10000
